Where a name gives a salt, the structure may show the parent alone.
Columns and labels:
[1] = target: Syk (356-635 amino acids) catalytic domain (Homo sapiens (Human), UniProt P43405); test: Inhibition of enzymatic Syk kinase activity (radiometric); assay type: biochemical; conditions: read-out: IC50 Syk
In short: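 Radiometric filter-binding format: 32P transfer from γ-32P-ATP onto pG4T, scintillation-counted after acid washes of P81 paper. Syk kinase domain (356-635), 0.035–7.5 ng per reaction, was exposed to compound for 30 minutes at room temperature before a 10-minute, 30° C. reaction with ATP (100 μM stock). Inhibition derived from counts with versus without compound.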

JAK2 = JAK2 (Homo sapiens (Human), UniProt O60674); test: Inhibition of enzymatic JAK2 kinase activity (TR-FRET); assay type: biochemical; conditions: read-out: IC50 JAK
JAK2, sequence (O60674 808-1132): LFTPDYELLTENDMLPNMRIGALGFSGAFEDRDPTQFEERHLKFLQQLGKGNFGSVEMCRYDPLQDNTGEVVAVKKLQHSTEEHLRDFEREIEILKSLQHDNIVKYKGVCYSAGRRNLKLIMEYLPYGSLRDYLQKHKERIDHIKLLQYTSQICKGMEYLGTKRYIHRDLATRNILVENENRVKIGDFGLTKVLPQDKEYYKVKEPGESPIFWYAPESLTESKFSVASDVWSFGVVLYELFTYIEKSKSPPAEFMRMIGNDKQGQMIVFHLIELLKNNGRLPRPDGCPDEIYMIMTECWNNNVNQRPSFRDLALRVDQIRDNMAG
In short: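 TR-FRET read-out (Eu antibody donor, Ulight poly Glu-Tyr acceptor, 665/615 nm ratio) after a 60 min RT kinase reaction with ATP, begun following 30 min compound–enzyme preincubation. Stopped by EDTA; inhibition expressed as 100 minus % activity of positive control.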

| SMILES | IC50 [1] | IC50 (JAK2) |
| --- | --- | --- |
| CCN1CCN(c2ccc(Nc3nc(-c4ccc(OC(F)(F)F)cc4)nc4cn[nH]c(=O)c34)cc2)CC1 [Example 28, 4-(4-(4-ethylpiperazin-1-yl)phenylamino)-2-(4-(trifluoromethoxy)phenyl) pyrimido[4,5-d]pyridazin-5(6H)-one] | > 100 nM | > 100 nM |
| CCN1CCN(C(=O)COc2ccc(Nc3nc(N4CCC(CC#N)CC4)nc4cn[nH]c(=O)c34)cc2)CC1 [Example 270, 2-(1-(4-((4-(2-(4-ethylpiperazin-1-yl)-2-oxoethoxy)phenyl)amino)-5-oxo-5,6-dihydropyrimido[4,5-d]pyridazin-2-yl)piperidin-4-yl)acetonitrile] | < 50 nM | < 50 nM |
| O=C(O)c1ccc(-c2nc(Nc3ccc(CN4CCNCC4)cc3)c3c(=O)[nH]ncc3n2)cc1 [Example 27, 4-(5-oxo-4-(4-(piperazin-1-ylmethyl)phenylamino)-5,6-dihydropyrimido[4,5-d]pyridazin-2-yl)benzoic acid hydrochloride] | > 100 nM | > 100 nM |
| CN1CCN(c2ccc(Nc3nc(N4CCC(CC#N)CC4)nc4cn[nH]c(=O)c34)cn2)CC1 [Example 243, 2-(1-(4-((6-(4-methylpiperazin-1-yl)pyridin-3-yl)amino)-5-oxo-5,6-dihydropyrimido[4,5-d]pyridazin-2-yl)piperidin-4-yl)acetonitrile] | < 50 nM | < 50 nM |
| O=c1[nH]ncc2nc(N3CCOCC3)nc(Nc3ccc(CN4CCNCC4)cc3)c12 [Example 3, 2-morpholino-4-(4-(piperazin-1-ylmethyl)phenylamino)pyrimido[4,5-d]pyridazin-5(6H)-one hydrochloride] | > 100 nM | < 100 nM |
| O=c1[nH]ncc2nc(N3CCC4(CC3)CC4)nc(Nc3ccc(N4CCOCC4)cc3)c12 [Example 18, 4-(4-morpholinophenylamino)-2-(6-azaspiro[2.5]octan-6-yl)pyrimido[4,5-d]pyridazin-5(6H)-one] | > 100 nM | < 50 nM |
| N#CCC1CCN(c2nc(Nc3ccc(OCCO)cc3)c3c(=O)[nH]ncc3n2)CC1 [Example 293, 2-(1-(4-((4-(2-hydroxyethoxy)phenyl)amino)-5-oxo-5,6-dihydropyrimido[4,5-d]pyridazin-2-yl)piperidin-4-yl) acetonitrile] | < 100 nM | < 50 nM |
| COc1ccc(-c2nc(Nc3ccc(CN4CCNCC4)cc3)c3c(=O)[nH]ncc3n2)cc1 [Example 41, 2-(4-methoxyphenyl)-4-(4-(piperazin-1-ylmethyl)phenylamino)pyrimido[4,5-d]pyridazin-5(6H)-one hydrochloride] | < 100 nM | > 100 nM |
| CS(=O)(=O)c1ccc(Nc2nc(N3CCCCCC3)nc3cn[nH]c(=O)c23)cc1 [Example 334, 2-(azepan-1-yl)-4-((4-(methylsulfonyl)phenyl)amino)pyrimido[4,5-d]pyridazin-5(6H)-one] | < 50 nM | < 10 nM |
| O=c1[nH]ncc2nc(N3CCCCCC3)nc(Nc3ccc(OCCC4CCNCC4)cc3)c12 [Example 168, 2-(azepan-1-yl)-4-((4-(2-(piperidin-4-yl)ethoxy)phenyl)amino)pyrimido[4,5-d]pyridazin-5(6H)-one] | < 50 nM | < 50 nM |
| N#CCC1CCN(c2ccc(Nc3nc(N4CCCCCC4)nc4cn[nH]c(=O)c34)cc2)CC1 [Example 113, 2-(1-(4-((2-(azepan-1-yl)-5-oxo-5,6-dihydropyrimido[4,5-d]pyridazin-4-yl)amino)phenyl)piperidin-4-yl)acetonitrile] | > 100 nM | < 10 nM |
| CN1CCN(c2nc(Nc3ccc(CN4CCNCC4)cc3)c3c(=O)[nH]ncc3n2)CC1 [Example 45, 2-(4-methylpiperazin-1-yl)-4-((4-(piperazin-1-ylmethyl)phenyl)amino) pyrimido[4,5-d]pyridazin-5(6H)-one hydrochloride] | > 100 nM | > 100 nM |

Results, then the compound that gave them:

| IC50 [1] | IC50 (JAK2) | SMILES |
| --- | --- | --- |
| < 10 nM | < 50 nM | O=c1[nH]ncc2nc(N3CCCCCC3)nc(Nc3ccc(OC[C@@H]4CO[C@@H](CO)CO4)cc3)c12 [Example 110, 2-(azepan-1-yl)-4-((4-(((2S,5S)-5-(hydroxymethyl)-1,4-dioxan-2-yl)methoxy)phenyl)amino)pyrimido[4,5-d]pyridazin-5(6H)-one] |
| < 50 nM | < 50 nM | N#CCC1CCN(c2nc(Nc3ccc(N4CCC5(CC4)CC5C(=O)O)nc3)c3c(=O)[nH]ncc3n2)CC1 (stereo not shown) [Example 148, 6-(5-((2-(4-(cyanomethyl)piperidin-1-yl)-5-oxo-5,6-dihydropyrimido[4,5-d]pyridazin-4-yl)amino)pyridin-2-yl)-6-azaspiro[2.5]octane-1-carboxylic acid] |
| < 50 nM | < 100 nM | CC1CCN(c2nc(Nc3ccc(OCCN4CCNCC4)cc3)c3c(=O)[nH]ncc3n2)CC1 [Example 156, 2-(4-methylpiperidin-1-yl)-4-((4-(2-(piperazin-1-yl)ethoxy)phenyl)amino) pyrimido[4,5-d]pyridazin-5(6H)-one hydrochloride] |
| < 50 nM | < 50 nM | N#CCC1CCN(c2nc(Nc3ccc4[nH]c(=O)[nH]c4c3)c3c(=O)[nH]ncc3n2)CC1 [Example 336, 2-(1-(5-oxo-4-((2-oxo-2,3-dihydro-1H-benzo[d]imidazol-5-yl)amino)-5,6-dihydropyrimido[4,5-d]pyridazin-2-yl)piperidin-4-yl)acetonitrile] |
| < 10 nM | < 10 nM | O=c1[nH]ncc2nc(N3CCCCCC3)nc(Nc3ccc(N4CCC(CCO)CC4)cc3)c12 [Example 195, 2-(azepan-1-yl)-4-((4-(4-(2-hydroxyethyl)piperidin-1-yl)phenyl)amino) pyrimido[4,5-d]pyridazin-5(6H)-one] |
| < 50 nM | < 50 nM | CN1CCN(c2ccc(Nc3nc(N4CCCCCC4)nc4cn[nH]c(=O)c34)cn2)CC1 [Example 242, 2-(azepan-1-yl)-4-((6-(4-methylpiperazin-1-yl)pyridin-3-yl)amino)pyrimido[4,5-d]pyridazin-5(6H)-one] |
| < 50 nM | < 10 nM | O=C(O)C1CC12CCN(c1ccc(Nc3nc(C4CCCCCC4)nc4cn[nH]c(=O)c34)cc1)CC2 (stereo not shown) [Example 81, 6-(4-((2-cycloheptyl-5-oxo-5,6-dihydropyrimido[4,5-d]pyridazin-4-yl)amino)phenyl)-6-azaspiro[2.5]octane-1-carboxylic acid] |
| < 50 nM | < 50 nM | N#CCC1CCN(c2nc(Nc3ccc(CCCF)cc3)c3c(=O)[nH]ncc3n2)CC1 [Example 337, 2-(1-(4-((4-(3-fluoropropyl)phenyl)amino)-5-oxo-5,6-dihydropyrimido[4,5-d]pyridazin-2-yl)piperidin-4-yl) acetonitrile] |
| < 10 nM | < 10 nM | CN1CCN(c2ccc(Nc3nc(N4CCCCCC4)nc4cn[nH]c(=O)c34)cc2)CC1 [Example 247, 2-(azepan-1-yl)-4-((4-(4-methylpiperazin-1-yl)phenyl)amino)pyrimido[4,5-d]pyridazin-5(6H)-one] |
| < 50 nM | < 100 nM | O=C(O)C1CC12CCN(c1ccc(Nc3nc(N4CCCNCC4)nc4cn[nH]c(=O)c34)cc1)CC2 (stereo not shown) [Example 72, 6-(4-((2-(1,4-diazepan-1-yl)-5-oxo-5,6-dihydropyrimido[4,5-d]pyridazin-4-yl)amino)phenyl)-6-azaspiro[2.5]octane-1-carboxylic acid hydrochloride] |
| < 50 nM | < 10 nM | N#CCC1CCN(c2nc(Nc3ccc(N4CCCC(CC(=O)O)C4)cc3)c3c(=O)[nH]ncc3n2)CC1 (stereo not shown) [Example 250, 2-(1-(4-((2-(4-(cyanomethyl)piperidin-1-yl)-5-oxo-5,6-dihydropyrimido[4,5-d]pyridazin-4-yl)amino)phenyl)piperidin-3-yl)acetic acid] |
| < 50 nM | < 10 nM | N#CCC1CCN(c2nc(Nc3ccc(N4CCCC(O)C4)cc3)c3c(=O)[nH]ncc3n2)CC1 (stereo not shown) [Example 282, 2-(1-(4-((4-(3-hydroxypiperidin-1-yl)phenyl)amino)-5-oxo-5,6-dihydropyrimido[4,5-d]pyridazin-2-yl)piperidin-4-yl)acetonitrile] |
| < 50 nM | > 100 nM | O=c1[nH]ncc2nc(-c3ccccc3)nc(Nc3ccc(OCCN4CCNCC4)cc3)c12 [Example 152, 2-phenyl-4-((4-(2-(piperazin-1-yl)ethoxy)phenyl)amino)pyrimido[4,5-d]pyridazin-5(6H)-one] |
| < 50 nM | > 100 nM | N#CCC1CCN(c2nc(Nc3ccc(OCCN4CCNCC4)cc3)c3c(=O)[nH]ncc3n2)CC1 [Example 150, 2-(1-(5-oxo-4-((4-(2-(piperazin-1-yl)ethoxy)phenyl)amino)-5,6-dihydropyrimido[4,5-d]pyridazin-2-yl)piperidin-4-yl)acetonitrile] |
| < 50 nM | < 50 nM | O=C(O)CN1CCN(CCOc2ccc(Nc3nc(N4CCCCCC4)nc4cn[nH]c(=O)c34)cc2)CC1 [Example 106, 2-(4-(2-(4-((2-(azepan-1-yl)-5-oxo-5,6-dihydropyrimido[4,5-d]pyridazin-4-yl)amino)phenoxy)ethyl)piperazin-1-yl) acetic acid] |
| < 10 nM | < 10 nM | N#CCC1CCN(c2nc(Nc3ccc(N4CCC(CCO)CC4)cc3)c3c(=O)[nH]ncc3n2)CC1 [Example 196, 2-(1-(4-((4-(4-(2-hydroxyethyl)piperidin-1-yl)phenyl)amino)-5-oxo-5,6-dihydropyrimido[4,5-d]pyridazin-2-yl)piperidin-4-yl)acetonitrile] |
| < 50 nM | < 10 nM | CCN1CCN(c2ccc(Nc3nc(N4CCCCCC4)nc4cn[nH]c(=O)c34)cn2)CC1 [Example 229, 2-(azepan-1-yl)-4-((6-(4-ethylpiperazin-1-yl)pyridin-3-yl)amino)pyrimido[4,5-d]pyridazin-5(6H)-one] |
